Data as given in patent publication US20090312335A1 (priority 2005, published 2009).

Test system: HIV replication
Assay: Inhibition of acute HIV infection with HeLa P4-2 cells, single cycle infectivity ("vertical") assay
Type: cell-based
Conditions: Human immunodeficiency virus 1, HeLaP4-2
Description: The inhibitory activity of the compounds of the present invention may be measured by assays known in the art. […] Preferred compounds have IC50 values of ≦1 micromolar in this integrase assay. […] 1992, 66, 2232 for measuring the inhibition of acute HIV infection with HeLa P4-2 cells in a single cycle infectivity assay.
An assay for measuring the inhibition of acute HIV infection with HeLa P4-2 cells in a single cycle infectivity assay (alternatively referred to as the “vertical” assay) was conducted in accordance with Joyce, J. G., et al., J. Biol. Chem., 2002, 277, 45811, Hazuda, D. J. et al., Science, 2000, 287, 646, and Kimpton, J. et al, J. Virol. 1992, 66, 2232.

| SMILES | IC50 [µM] |
| --- | --- |
| CN1C[C@H](c2ccccc2)n2nc(-c3nnc(Cc4ccc(F)cc4)s3)c(O)c2C1=O [Example 4, (7S)-2-[5-(4-Fluorobenzyl)-1,3,4-thiadiazol-2-yl]-3-hydroxy-5-methyl-7-phenyl-6,7-dihydropyrazolo[1,5a]pyrazin-4(5H)-one] | < 35 |
| CN1CCn2cc(-c3nnc(Cc4ccc(F)cc4)o3)c(O)c2C1=O [Example 2, 7-[5-(4-Fluorobenzyl)-1,3,4-oxadiazol-2-yl]-8-hydroxy-2-methyl-3,4-dihydropyrrolo[1,2-a]pyrazin-1(2H)-one] | < 35 |
| CN1CCn2cc(-c3nnc(Cc4ccc(F)cc4)[nH]3)c(O)c2C1=O [Example 3] | < 35 |
| CN1CCn2cc(-c3nnc(Cc4ccc(F)cc4)s3)c(O)c2C1=O [Example 1, 7-[5-(4-Fluorobenzyl)-1,3,4-thiadiazol-2-yl]-8-hydroxy-2-methyl-3,4-dihydropyrrolo[1,2-a]pyrazin-1(2H)-one] | < 35 |
| CN1C[C@H](c2ccccc2)n2nc(-c3nnc(Cc4ccc(F)cc4)o3)c(O)c2C1=O [Example 5, (7S)-2-[5-(4-Fluorobenzyl)-1,3,4-oxadiazol-2-yl]-3-hydroxy-5-methyl-7-phenyl-6,7-dihydropyrazolo[1,5a]pyrazin-4(5H)-one] | < 35 |
